In brackets after ≈: the same amount, converted by molar mass.
Legend:
A. thermomutatus = assay: MIC against moulds; format: cell-based; conditions: for MIC A. thermomutatus: 6 isolates, AmB (AmBisome)
Solubility in D5W = conditions: solubility in D5W
CEA10 (clinical isolate) = assay: MIC against azole and echinocandin resistant fungal strains (CLSI); format: cell-based, A. funigatus; conditions: read-out: MIC CEA10
Protocol: This experiment was performed following the standard CLSI protocol.

SMILES | MIC (A. thermomutatus; Aspergillus thermomutatus, read-out: MIC A. thermomutatus) [µM] | MIC A. thermomutatus (A. thermomutatus) [µM] | Fold of Increase w.r.t. AmB (Solubility in D5W) | MIC (CEA10 (clinical isolate)) [µM]
C[C@@H]1[C@H](O)[C@@H](C)/C=C/C=C/C=C/C=C/C=C/C=C/C=C/[C@H](OC2O[C@H](C)[C@@H](O)[C@H](N)[C@@H]2O)C[C@@H]2O[C@](O)(C[C@@H](O)C[C@@H](O)[C@H](O)CC[C@@H](O)C[C@@H](O)CC(=O)O[C@H]1C)C[C@H](O)[C@H]2C(=O)O (stereo partly drawn) [AmB, Amphotericin B] | 0.6 (≈ 0.554 µg/mL) |  |  | 
CC1C=CC=CC=CC=CC=CC=CC=CC(OC2OC(C)C(O)C(N)C2O)CC2OC(O)(CC(O)CC(O)C(O)CCC(O)CC(O)CC(=O)OC(C)C(C)C1O)CC(O)C2C(=O)NC(CO)CO (stereo not drawn) [Compound 1] |  | 1.45 (≈ 1.45 µg/mL) | >314 | 
CC1C=CC=CC=CC=CC=CC=CC=CC(OC2OC(C)C(O)C(N)C2O)CC2OC(O)(CC(O)CC(O)C(O)CCC(O)CC(O)CC(=O)OC(C)C(C)C1O)CC(O)C2C(=O)NC(CO)(CO)CO (stereo not drawn) [Compound 2] |  | 2.1 (≈ 2.16 µg/mL) | 15.9 | 
C[C@@H](c1ncncc1F)[C@](O)(Cn1cncn1)c1ccc(F)cc1F [Voriconazole] |  |  |  | 1.43 (≈ 0.5 µg/mL)

Reference: patent US12655173B2, “Hybrid amide derivatives of amphotericin B” (priority 2020, dated 2026)
